B1: AP-101 (antibody, V domains shown)
VH: EVQLVESGAEVKKPGASVTLSCKASGYTFTAYYIHWVRQAREQGLEWMGVINPSTGTTFYAQNFPDRVSVTRDTSTSTVFMELHNLKSEDTAVYYCARAISEHGSGSYSPYYWGQGTLVTVSS
VL: SYVLTQPPSVSVSLGQMAAITCSGEALPKKYGYWYQQKPGQVPVLLIYRDVERPSGVPDRFSGSSSGTMVTLTISGVQAEDEADYYCLSADSSGTWVFGGGTKLTVL
B2: Degly-^natZr-DFO-AP-101 (antibody, human IgG1, V domains shown)
VH: B1 VH
VL: B1 VL
modifications: DFO chelator conjugated randomly on lysine residues; Fc N-glycans removed with EndoS2 (GlycINATOR); DFO chelator on lysine residues, average 0.6 DFO per antibody; natZr complexed
B3: ^natZr-DFO-AP-101 (antibody, human IgG1, V domains shown)
VH: B1 VH
VL: B1 VL
modifications: p-SCN-Bn desferoxamine (DFO) chelator conjugated randomly on lysine residues; p-SCN-Bn desferoxamine (DFO) chelator conjugated randomly on lysine residues, DFO:AP-101 ratio 1.1:1.0; natZr complexed
notes: also called DFO-α-miSOD1

Tests used:
mSOD1 aggregates = assay: PET imaging of spinal cord mSOD1 aggregates (spots); assay type: in vivo, mice
Protocol: Under isoflurane anesthesia. […] Imaging days post administration of the radiotracer were optimized as the first results were collected the last groups being imaged only at days 7 and 10. Once the radiotracer administrated, the mouse was placed in its cage to recuperate from anesthesia and returned to the housing facility.
PET imaging was performed on days 7 and 10 following the administration of the radiotracer. Imaging was done on a LabPET-2 PET scanner (https://imagingrt.com/. Bore size: 72 mm. Axial FOV: 50 mm. Transaxial FOV: 60 mm. Spatial resolution: 0.74 mm (Isotropic at 5 mm from center). Detection efficiency (250-650 keV): 3.3% dedicated to small animal imaging. Preparation and PET imaging was done under isoflurane anesthesia delivered through a nose cone (Induction 2-3% isoflurane then 1 - 2.5%. 1-1.5 L of oxygen/min) the level of anesthesia being modulated if required during PET imaging. An ophthalmic gel was applied to the eyes to prevent eye dryness. The mouse was positioned within the field of view of the PET imager and a 30 min static acquisition was performed then the bed of the imager was moved within the CT module of the LabPET8 scanner, and a 2 min CT acquisition was performed. During PET imaging, the mouse was kept warm using pulsed hot air maintained at 32 °C, the environment temperature and respiration rate being monitored throughout the imaging procedure (PCSAM. Model 1025T Monitoring & Gating System, SA Instruments Inc.). Once the imaging procedure was completed, the mouse was placed in its cage to recuperate from anesthesia and returned to the housing facility.
PET data were acquired in list mode and reconstructed on a 200 x 200 x 168 grid with 0.3 x 0.3 x 0.3 mm^3 voxel size using 16 iterations and 8 subset of the 3D Ordered Subset Expectation Maximization (OSEM) algorithm. All PET images were corrected for the physical radionuclide decay of ^89Zr and random coincidences. […]
Once reconstructed the PET images were visually inspected to identify potential mSOD1 aggregates, which appear as discrete radiotracer spots within the spinal cord. […] The criteria for validity were that the spot was well defined within the spinal cord and not contaminated by radioactivity spilled in form the presence of the radiotracer in the anterior portion of the vertebra. […]
Once located region of interest (ROI) was then traced around these spots and the measure radiotracer content corrected for the partial volume effect (PVE) using the recovery coefficient and for spill-in from the presence of free ^89Zr in the anterior part of the vertebra (Fig. 4). […] The radioactivity content of m-SOD1 aggregated was expressed in terms of %ID/g.

denatured human SOD1 [1] = biological target: T1, denatured human SOD1 (human, UniProt P00441 2-154); assay: direct ELISA on denatured human SOD1 (Fig. 6A)
T1 construct: also called misfolded SOD1; mSOD1
T1 sequence (P00441 2-154 limits assumed): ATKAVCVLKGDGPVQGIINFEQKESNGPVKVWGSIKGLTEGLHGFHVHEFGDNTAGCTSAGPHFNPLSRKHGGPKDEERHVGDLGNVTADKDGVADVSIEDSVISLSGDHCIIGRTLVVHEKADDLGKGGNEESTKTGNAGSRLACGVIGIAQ

denatured human SOD1 [2] = biological target: T1, denatured human SOD1; assay: direct ELISA on denatured human SOD1 (mSOD1)
denatured human SOD1 [3] = biological target: T1, denatured human SOD1; assay: ELISA on misfolded SOD1 (refers to Fig. 6)

Molecule | number of detected spots including false positive spots (mSOD1 aggregates; day 7 post administration) [spots] | number of detected spots including false positive spots (mSOD1 aggregates; day 10 post administration) [spots] | EC50 (denatured human SOD1 [2]) [nM] | other results
^89Zr-DFO-AP-101: AP-101 antibody, SCN-Bn-DFO as bifunctional chelator and ^89Zr as radionuclide; PET radiotracer | 6 | 18 |  | 
Degly-^89Zr-DFO-AP-101: ^89Zr-DFO-AP-101 in which the AP-101 antibody is deglycosylated | 6 | 12 |  | 
B1 |  |  |  | EC50 (denatured human SOD1 [1]): 0.2 nM
B2 |  |  | 2.4 | 
B3 |  |  | 0.3 | EC50 (denatured human SOD1 [3]): 0.5 nM

Source: patent EP4454666A1, “IN VIVO IMAGING OF AN ALS BIOMARKER AND MEANS THEREFOR” (Société de Commercialisation des Produits de la Recherche …, priority 2023, dated 2024)
